# According to ChEMBL document CHEMBL1136226, “Design and synthesis of new benzimidazole-arylpiperazine derivatives acting as mixed 5-HT1A/5-HT3 ligands” (Bioorg Med Chem Lett, 2003):
# Key:
# [1] = target: T1, 5-hydroxytryptamine receptor 1A (Rattus norvegicus, UniProt P19327); assay: Displacement of [3H]8-OH-DPAT from 5-hydroxytryptamine 1A receptor of rat cerebral cortex membranes; assay type: cell membranes, Membrane
# T1 sequence (P19327 whole entry): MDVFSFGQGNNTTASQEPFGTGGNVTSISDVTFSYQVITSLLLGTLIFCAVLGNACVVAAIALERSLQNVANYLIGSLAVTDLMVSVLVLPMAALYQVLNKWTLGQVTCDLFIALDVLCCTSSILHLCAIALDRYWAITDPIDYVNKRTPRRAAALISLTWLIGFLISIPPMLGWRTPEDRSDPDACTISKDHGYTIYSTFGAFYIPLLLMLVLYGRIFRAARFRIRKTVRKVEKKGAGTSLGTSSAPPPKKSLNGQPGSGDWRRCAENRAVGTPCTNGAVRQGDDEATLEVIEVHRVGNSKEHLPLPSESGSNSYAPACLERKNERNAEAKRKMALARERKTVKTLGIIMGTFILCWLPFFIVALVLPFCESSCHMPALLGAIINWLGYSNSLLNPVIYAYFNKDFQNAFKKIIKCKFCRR
# [2] = target: T2, Serotonin 3 (5-HT3) receptor (Rattus norvegicus, UniProt P35563+Q9JJ16); assay: Binding affinity for 5-HT3 receptor by displacement of [3H]-LY 278584 in rat cerebral cortex membranes; assay type: cell membranes, Membrane
# T2 sequence (P35563 whole entry): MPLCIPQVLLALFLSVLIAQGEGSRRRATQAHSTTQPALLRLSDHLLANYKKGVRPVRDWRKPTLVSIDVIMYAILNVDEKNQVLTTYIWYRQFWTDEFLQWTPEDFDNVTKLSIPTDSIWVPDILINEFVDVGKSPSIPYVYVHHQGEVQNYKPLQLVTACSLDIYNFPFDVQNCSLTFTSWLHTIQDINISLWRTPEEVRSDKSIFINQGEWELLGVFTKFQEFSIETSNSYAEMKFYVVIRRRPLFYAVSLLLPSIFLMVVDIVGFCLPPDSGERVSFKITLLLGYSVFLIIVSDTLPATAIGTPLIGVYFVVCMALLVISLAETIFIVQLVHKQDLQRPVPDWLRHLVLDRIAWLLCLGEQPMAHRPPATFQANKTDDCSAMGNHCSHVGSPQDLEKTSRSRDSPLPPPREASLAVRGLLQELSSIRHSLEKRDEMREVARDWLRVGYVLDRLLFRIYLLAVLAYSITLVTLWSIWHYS
# T2 sequence (Q9JJ16 whole entry): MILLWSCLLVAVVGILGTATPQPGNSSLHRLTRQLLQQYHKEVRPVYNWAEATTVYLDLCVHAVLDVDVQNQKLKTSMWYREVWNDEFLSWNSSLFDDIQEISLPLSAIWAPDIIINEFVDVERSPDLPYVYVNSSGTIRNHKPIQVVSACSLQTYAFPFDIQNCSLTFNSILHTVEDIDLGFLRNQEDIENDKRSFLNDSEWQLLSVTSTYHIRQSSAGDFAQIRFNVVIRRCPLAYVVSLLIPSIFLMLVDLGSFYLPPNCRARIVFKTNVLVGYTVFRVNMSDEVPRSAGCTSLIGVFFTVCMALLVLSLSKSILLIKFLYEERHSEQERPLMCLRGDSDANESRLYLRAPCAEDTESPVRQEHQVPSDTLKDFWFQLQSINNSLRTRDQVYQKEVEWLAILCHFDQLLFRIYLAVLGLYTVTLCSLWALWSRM
# [3] = organism: Cavia porcellus; assay: Blockade of isolated longitudinal muscle myenteric plexus contraction from guinea-pig ileum; assay type: functional; conditions: Muscle tissue
SMILES,Ki [1] [µM],Ki [2] [µM],IC50 [3] [µM]
O=C(NC1CN2CCC1CC2)c1cccc2nc(CN3CCN(c4ccccc4)CC3)[nH]c12 (centres undefined),> 1,0.0231,
O=C(NC1CN2CCC1CC2)c1cccc2nc(CN3CCN(c4cccc5nc[nH]c45)CC3)[nH]c12 (centres undefined),0.148,> 1,
CC(C)Oc1ccccc1N1CCN(Cc2nc3cccc(C(=O)NC4CN5CCC4CC5)c3[nH]2)CC1 (centres undefined),0.0344,0.0621,
CCOc1ccccc1N1CCN(Cc2nc3c(C(=O)NC4CN5CCC4CC5)cccc3[nH]2)CC1 (centres undefined),0.018,0.0272,0.19
O=C(NC1CN2CCC1CC2)c1cccc2nc(CN3CCN(c4cccc(C(F)(F)F)c4)CC3)[nH]c12 (centres undefined),> 10,0.0239,
COc1ccccc1N1CCN(Cc2nc3cccc(C(=O)NC4CN5CCC4CC5)c3[nH]2)CC1 (centres undefined),0.15,0.0103,
CCCOc1ccccc1N1CCN(Cc2nc3c(C(=O)NC4CN5CCC4CC5)cccc3[nH]2)CC1 (centres undefined),0.0561,0.0246,
CCCCOc1ccccc1N1CCN(Cc2nc3c(C(=O)NC4CN5CCC4CC5)cccc3[nH]2)CC1 (centres undefined),0.0459,0.0151,
O=C(NC1CN2CCC1CC2)c1cccc2[nH]c(CN3CCN(c4cccc(Cl)c4)CC3)nc12 (centres undefined),> 10,0.0183,
O=C(NC1CN2CCC1CC2)c1cccc2[nH]c(CN3CCN(c4ccc5c(c4)OCO5)CC3)nc12 (centres undefined),0.467,0.024,
O=C(NC1CN2CCC1CC2)c1cccc2[nH]c(CN3CCN(c4cccc5ccccc45)CC3)nc12 (centres undefined),> 1,0.0325,
Cc1nccn1CC1CCc2c(c3ccccc3n2C)C1=O (centres undefined) [ONDANSETRON],,,0.24
